Biological target: T1, RhaL1 (α-L-rhamnosidase from Alternaria sp. L1) (Alternaria sp. L1, UniProt H6UY33)
T1 construct: recombinant, secreted from Pichia pastoris GS115 (vector pPIC9K, SnaBI/NotI), N-glycosylated; about 120 kDa on SDS-PAGE, about 85 kDa after PNGase F
T1 sequence (H6UY33 20-681): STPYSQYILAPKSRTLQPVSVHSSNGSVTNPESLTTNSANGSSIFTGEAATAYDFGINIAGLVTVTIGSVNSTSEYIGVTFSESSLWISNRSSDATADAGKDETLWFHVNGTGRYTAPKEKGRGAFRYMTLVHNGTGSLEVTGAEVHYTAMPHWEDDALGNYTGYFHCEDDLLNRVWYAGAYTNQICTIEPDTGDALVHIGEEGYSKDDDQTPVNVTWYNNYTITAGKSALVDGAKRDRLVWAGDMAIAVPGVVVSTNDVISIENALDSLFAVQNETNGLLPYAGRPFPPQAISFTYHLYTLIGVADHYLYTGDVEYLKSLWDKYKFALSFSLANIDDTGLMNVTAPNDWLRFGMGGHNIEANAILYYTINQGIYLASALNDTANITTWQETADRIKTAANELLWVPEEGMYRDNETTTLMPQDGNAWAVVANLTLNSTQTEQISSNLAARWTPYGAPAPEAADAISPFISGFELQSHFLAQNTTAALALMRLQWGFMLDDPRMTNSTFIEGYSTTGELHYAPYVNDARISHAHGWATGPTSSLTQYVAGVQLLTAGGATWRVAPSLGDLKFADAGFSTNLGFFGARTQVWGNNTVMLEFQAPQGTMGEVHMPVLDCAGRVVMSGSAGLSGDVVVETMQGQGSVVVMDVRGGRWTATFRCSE
Experiment: reverse hydrolysis; HPLC, product by ESI-MS and NMR
Type: biochemical
Conditions: glycosyl donor, acceptor D-mannitol (also D-fructose, esculin); pH 6.5, 55 °C, 48 h

With `C[C@@H]1OC(O)[C@H](O)[C@H](O)[C@H]1O` (stereo partly drawn) [L-rhamnose] the “reverse hydrolysis; HPLC, product by ESI-MS and NMR” value was “synthesized by the recombinant RhaL1 using L-rhamnose as the glycosyl donor and mannitol as the acceptor”.

— publication PMC4624630, “Enzymatic Synthesis of Rhamnose Containing Chemicals by Reverse Hydrolysis” (PLoS ONE, 2015)
